Results: US10758534B2 (Vertex Pharmaceuticals Incorporated, priority 2014, dated 2020)

Biological target: T1, F508del (Homo sapiens, UniProt P13569, DEL508-508)
T1 construct: expressed in transfected cells
Assay: Protocol 2: FRET membrane potential optical assay (VIPR), identification of correction compounds
Format: cell-based
Conditions: Table 3; compounds of Table 1 as modulators of CFTR activity; protocol not stated
Procedure, shortened: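 NIH3T3 mouse fibroblasts stably expressing F508del-CFTR incubated with compound 16 h at 37 °C in serum-free medium, then loaded with CC2-DMPE/DiSBAC2(3) FRET dyes. Channel activated with 10 μM forskolin plus 20 μM genistein in Cl⁻-free (gluconate) bath; depolarisation from Cl⁻ efflux read on VIPR II.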

T1 sequence (P13569 with tags, fused parts or gaps DEL508-508): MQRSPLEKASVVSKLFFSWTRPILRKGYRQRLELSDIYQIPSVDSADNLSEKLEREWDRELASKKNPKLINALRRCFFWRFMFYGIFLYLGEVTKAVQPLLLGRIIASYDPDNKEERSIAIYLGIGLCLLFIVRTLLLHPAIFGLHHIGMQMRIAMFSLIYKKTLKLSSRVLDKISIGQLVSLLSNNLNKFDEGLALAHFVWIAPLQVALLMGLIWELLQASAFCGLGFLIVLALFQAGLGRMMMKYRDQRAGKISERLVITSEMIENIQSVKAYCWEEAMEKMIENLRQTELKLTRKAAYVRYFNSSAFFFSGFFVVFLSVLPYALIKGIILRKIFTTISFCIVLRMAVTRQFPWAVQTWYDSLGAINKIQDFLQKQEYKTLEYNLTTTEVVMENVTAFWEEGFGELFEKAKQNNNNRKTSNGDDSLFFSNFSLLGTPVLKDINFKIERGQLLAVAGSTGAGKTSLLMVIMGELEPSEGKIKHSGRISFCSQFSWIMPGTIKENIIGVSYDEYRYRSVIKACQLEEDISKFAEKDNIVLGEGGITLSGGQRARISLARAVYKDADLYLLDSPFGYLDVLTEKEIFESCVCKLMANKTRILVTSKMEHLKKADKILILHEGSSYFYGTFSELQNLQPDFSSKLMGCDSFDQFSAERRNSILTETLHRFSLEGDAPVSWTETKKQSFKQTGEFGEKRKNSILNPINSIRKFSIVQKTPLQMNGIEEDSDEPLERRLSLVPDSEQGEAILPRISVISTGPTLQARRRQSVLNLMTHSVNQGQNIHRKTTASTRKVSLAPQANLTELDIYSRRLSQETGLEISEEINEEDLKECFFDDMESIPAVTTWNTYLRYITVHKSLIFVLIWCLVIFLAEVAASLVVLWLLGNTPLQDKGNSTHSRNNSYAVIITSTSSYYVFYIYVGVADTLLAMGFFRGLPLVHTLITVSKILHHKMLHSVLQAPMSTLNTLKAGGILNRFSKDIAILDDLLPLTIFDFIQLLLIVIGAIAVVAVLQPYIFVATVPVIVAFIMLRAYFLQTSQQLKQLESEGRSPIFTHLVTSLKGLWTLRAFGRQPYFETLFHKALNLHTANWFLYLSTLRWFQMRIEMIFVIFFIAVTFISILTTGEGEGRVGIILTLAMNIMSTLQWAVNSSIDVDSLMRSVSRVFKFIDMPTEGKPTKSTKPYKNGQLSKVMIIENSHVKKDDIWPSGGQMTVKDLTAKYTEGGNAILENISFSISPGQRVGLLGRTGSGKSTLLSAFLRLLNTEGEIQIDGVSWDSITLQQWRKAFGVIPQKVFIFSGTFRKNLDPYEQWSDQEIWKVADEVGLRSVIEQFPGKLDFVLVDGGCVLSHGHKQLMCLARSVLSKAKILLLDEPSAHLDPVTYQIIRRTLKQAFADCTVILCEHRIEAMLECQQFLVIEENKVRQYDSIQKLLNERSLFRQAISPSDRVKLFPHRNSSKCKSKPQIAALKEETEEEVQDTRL

| SMILES | EC30 |
| --- | --- |
| CCC1(C)CCCN(c2nc(-c3cc(F)cc(OCC(C)C)c3)ccc2C(=O)NS(=O)(=O)c2cccc(N)n2)C1 (centres unmarked) [Compound 530, N-[(6-amino-2-pyridyl)sulfonyl]-2-(3-ethyl-3-methyl-1-piperidyl)-6-(3-fluoro-5-isobutoxy-phenyl)pyridine-3-carboxamide] | +++ (“+++” means <3 uM) |
| COc1ccc(-c2ccc(C(=O)NS(=O)(=O)c3cccc(N)n3)c(Oc3c(C)cc(C)cc3C)n2)cn1 [Compound 531, N-[(6-amino-2-pyridyl)sulfonyl]-6-(6-methoxy-3-pyridyl)-2-(2,4,6-trimethylphenoxy)pyridine-3-carboxamide] | +++ (“+++” means <3 uM) |
| Cc1ccc(C(=O)NS(=O)(=O)c2cccc(N)n2)c(N2CCC[C@@H](c3ccccc3)C2)n1 [Compound 532, N-[(6-amino-2-pyridyl)sulfonyl]-6-methyl-2-[(3S)-3-phenyl-1-piperidyl]pyridine-3-carboxamide] | ++ (“++” means between 3 uM and 10 uM) |
| COc1ncc(-c2ccc(C(=O)NS(=O)(=O)c3cccc(N)n3)c(Oc3ccc(C)cc3C)n2)cc1C [Compound 533, N-[(6-amino-2-pyridyl)sulfonyl]-2-(2,4-dimethylphenoxy)-6-(6-methoxy-5-methyl-3-pyridyl)pyridine-3-carboxamide] | +++ (“+++” means <3 uM) |
| CC1CCN(c2nc(-c3ccc(OC(C)C)nc3)ccc2C(=O)NS(=O)(=O)c2ccn[nH]2)CC1 [Compound 534, 6-(6-isopropoxy-3-pyridyl)-2-(4-methyl-1-piperidyl)-N-(1H-pyrazol-5-ylsulfonyl)pyridine-3-carboxamide] | ++ (“++” means between 3 uM and 10 uM) |
| CCCOc1cc(-c2ccc(C(=O)NS(=O)(=O)c3cccc(N)n3)c(Oc3c(C)cc(C)cc3C)n2)ccc1Cl [Compound 535, N-[(6-amino-2-pyridyl)sulfonyl]-6-(4-chloro-3-propoxy-phenyl)-2-(2,4,6-trimethylphenoxy)pyridine-3-carboxamide] | +++ (“+++” means <3 uM) |
| CCOc1ccc(-c2ccc(C(=O)NS(=O)(=O)c3cccc(N)n3)c(N3CC(C)CC3(C)C)n2)c(C)c1 (centres unmarked) [Compound 536, N-[(6-amino-2-pyridyl)sulfonyl]-6-(4-ethoxy-2-methyl-phenyl)-2-(2,2,4-trimethylpyrrolidin-1-yl)pyridine-3-carboxamide] | +++ (“+++” means <3 uM) |
| CC(C)(C)c1ccc(C(=O)NS(=O)(=O)c2ccc(N)cc2)c(C2CCCCC2)n1 [Compound 537, N-(4-aminophenyl)sulfonyl-6-tert-butyl-2-cyclohexyl-pyridine-3-carboxamide] | +++ (“+++” means <3 uM) |
| Cc1cc(C)c(Oc2nc(C3CCC(C)(C)CC3)ccc2C(=O)NS(=O)(=O)c2cccc(N)n2)c(C)c1 [Compound 538, N-[(6-amino-2-pyridyl)sulfonyl]-6-(4,4-dimethylcyclohexyl)-2-(2,4,6-trimethylphenoxy)pyridine-3-carboxamide] | +++ (“+++” means <3 uM) |
| CC(C)COc1ccc(-c2ccc(C(=O)NS(=O)(=O)c3cccc(N)n3)c(N3[C@H](C)CC[C@@H]3C)n2)cn1 [Compound 544, N-[(6-amino-2-pyridyl)sulfonyl]-2-[(2S,5R)-2,5-dimethylpyrrolidin-1-yl]-6-(6-isobutoxy-3-pyridyl)pyridine-3-carboxamide] | +++ (“+++” means <3 uM) |
| CC(C)COc1cc(F)cc(-c2ccc(C(=O)NS(=O)(=O)c3cccc(N)n3)c(N3CC[C@H](C)C3(C)C)n2)c1 [Compound 547, N-[(6-amino-2-pyridyl)sulfonyl]-6-(3-fluoro-5-isobutoxy-phenyl)-2-[(3S)-2,2,3-trimethylpyrrolidin-1-yl]pyridine-3-carboxamide] | +++ (“+++” means <3 uM) |
| CC(C)COc1cc(F)cc(-c2ccc(C(=O)NS(=O)(=O)c3cccc4[nH]ccc34)c(N3CC(C)CC3(C)C)n2)c1 (centres unmarked) [Compound 549, 6-(3-fluoro-5-isobutoxy-phenyl)-N-(1H-indol-4-ylsulfonyl)-2-(2,2,4-trimethylpyrrolidin-1-yl)pyridine-3-carboxamide] | +++ (“+++” means <3 uM) |
| CC(C)COc1cc(F)cc(-c2ccc(C(=O)NS(=O)(=O)c3ccn[nH]3)c(N3CCC(C(C)C)CC3)n2)c1 [Compound 553, 6-(3-fluoro-5-isobutoxy-phenyl)-2-(4-isopropyl-1-piperidyl)-N-(1H-pyrazol-5-ylsulfonyl)pyridine-3-carboxamide] | +++ (“+++” means <3 uM) |
| CC(C)COc1cc(F)cc(-c2ccc(C(=O)NS(=O)(=O)c3cccc(N)n3)c(N3CC(C)CC3(C)C)n2)c1 (centres unmarked) [Compound 555, N-[(6-amino-2-pyridyl)sulfonyl]-6-(3-fluoro-5-isobutoxy-phenyl)-2-(2,2,4-trimethylpyrrolidin-1-yl)pyridine-3-carboxamide] | +++ (“+++” means <3 uM) |
| CC(C)COc1cc(F)cc(-c2ccc(C(=O)NS(=O)(=O)c3ccn[nH]3)c(N3CCC(CC#N)CC3)n2)c1 [Compound 556, 2-[4-(cyanomethyl)-1-piperidyl]-6-(3-fluoro-5-isobutoxy-phenyl)-N-(1H-pyrazol-5-ylsulfonyl)pyridine-3-carboxamide] | + (“+” means greater than 10 uM) |

Next, values leading:

| EC30 | SMILES |
| --- | --- |
| + (“+” means greater than 10 uM) | COc1ccnc2c1cc(C(=O)NS(=O)(=O)c1cccc(N)n1)n2Cc1c(C)cc(C)cc1C [Compound 539, N-[(6-amino-2-pyridyl)sulfonyl]-4-methoxy-1-[(2,4,6-trimethylphenyl)methyl]pyrrolo[2,3-b]pyridine-2-carboxamide] |
| + (“+” means greater than 10 uM) | C[C@H](c1ccccc1)n1nc(C(C)(C)C)cc1C(=O)NS(=O)(=O)c1cccc(N)c1 [Compound 540, N-(3-aminophenyl)sulfonyl-5-tert-butyl-2-[1(1R)-1-phenylethyl]pyrazole-3-carboxamide] |
| +++ (“+++” means <3 uM) | C[C@@H]1CC[C@H](C)N1c1nc(-c2cc(F)cc(OCC3CC3)c2)ccc1C(=O)NS(=O)(=O)c1ccc[nH]c1=O [Compound 541, 6-[3-(cyclopropylmethoxy)-5-fluoro-phenyl]-2-[(2S,5R)-2,5-dimethylpyrrolidin-1-yl]-N-[(2-oxo-1H-pyridin-3-yl)sulfonyl]pyridine-3-carboxamide] |
| +++ (“+++” means <3 uM) | CC(C)(C)c1ccc(C(=O)NS(=O)(=O)c2cccc(N)c2)c(-c2ccccc2)n1 [Compound 542, N-(3-aminophenyl)sulfonyl-6-tert-butyl-2-phenyl-pyridine-3-carboxamide] |
| ++ (“++” means between 3 uM and 10 uM) | Cc1cc(C)c(Oc2nc(-c3ccc(C(=O)NC(C)C)c(F)c3)ccc2C(=O)NS(=O)(=O)c2cccc(N)n2)c(C)c1 [Compound 543, N-[(6-amino-2-pyridyl)sulfonyl]-6-[3-fluoro-4-(isopropylcarbamoyl)phenyl]-2-(2,4,6-trimethylphenoxy)pyridine-3-carboxamide] |
| ++ (“++” means between 3 uM and 10 uM) | Cc1cc(C)c(Oc2nc(-c3cc(F)ccc3F)ccc2C(=O)NS(=O)(=O)c2ccc[nH]c2=O)c(C)c1 [Compound 545, 6-(2,5-difluorophenyl)-N-[(2-oxo-1H-pyridin-3-yl)sulfonyl]-2-(2,4,6-trimethylphenoxy)pyridine-3-carboxamide] |
| ++ (“++” means between 3 uM and 10 uM) | Cc1cc(C)c(Oc2nc(-c3ccc(F)c(F)c3)ccc2C(=O)NS(=O)(=O)c2ccc[nH]c2=O)c(C)c1 [Compound 546, 6-(3,4-difluorophenyl)-N-[(2-oxo-1H-pyridin-3-yl)sulfonyl]-2-(2,4,6-trimethylphenoxy)pyridine-3-carboxamide] |
| +++ (“+++” means <3 uM) | Cc1cc(C)c(Oc2nc(-c3ccc(C(F)(F)F)cc3)ccc2C(=O)NS(=O)(=O)c2cccc(N)n2)c(C)c1 [Compound 548, N-[(6-amino-2-pyridyl)sulfonyl]-6-[4-(trifluoromethyl)phenyl]-2-(2,4,6-trimethylphenoxy)pyridine-3-carboxamide] |
| ++ (“++” means between 3 uM and 10 uM) | COc1ccc(-c2nc(C(C)(C)C)ccc2C(=O)NS(=O)(=O)c2cccc(N)c2)cc1 [Compound 550, N-(3-aminophenyl)sulfonyl-6-tert-butyl-2-(4-methoxyphenyl)pyridine-3-carboxamide] |
| +++ (“+++” means <3 uM) | CCOc1cc(F)cc(-c2ccc(C(=O)NS(=O)(=O)c3cccc(N)n3)c(N3[C@H](C)CC[C@@H]3C)n2)c1 [Compound 551, N-[(6-amino-2-pyridyl)sulfonyl]-2-[(2R,5S)-2,5-dimethylpyrrolidin-1-yl]-6-(3-ethoxy-5-fluoro-phenyl)pyridine-3-carboxamide] |
| ++ (“++” means between 3 uM and 10 uM) | CCCOc1ccc(F)c(-c2ccc(C(=O)NS(=O)(=O)c3ccc[nH]c3=O)c(Oc3c(C)cc(C)cc3C)n2)c1 [Compound 552, 6-(2-fluoro-5-propoxy-phenyl)-N-[(2-oxo-1H-pyridin-3-yl)sulfonyl]-2-(2,4,6-trimethylphenoxy)pyridine-3-carboxamide] |
| +++ (“+++” means <3 uM) | Cc1cc(C)c(CN2Cc3c(-c4ccccc4)cccc3C2C(=O)NS(=O)(=O)c2cccc(N)n2)c(C)c1 (centres unmarked) [Compound 554, N-[(6-amino-2-pyridyl)sulfonyl]-4-phenyl-2-[(2,4,6-trimethylphenyl)methyl]isoindoline-1-carboxamide] |
| +++ (“+++” means <3 uM) | CC(C)Oc1ccc(-c2ccc(C(=O)NS(=O)(=O)c3cccc(N)n3)c(N3CC[C@H](C)C3(C)C)n2)cn1 [Compound 557, N-[(6-amino-2-pyridyl)sulfonyl]-6-(6-isopropoxy-3-pyridyl)-2-[(3S)-2,2,3-trimethylpyrrolidin-1-yl]pyridine-3-carboxamide] |
| +++ (“+++” means <3 uM) | CC(C)Oc1ccc(-c2ccc(C(=O)NS(=O)(=O)c3cccc(N)n3)c(N3CCCC(c4ccc(F)c(F)c4)C3)n2)cn1 (centres unmarked) [Compound 558, N-[(6-amino-2-pyridyl)sulfonyl]-2-[3-(3,4-difluorophenyl)-1-piperidyl]-6-(6-isopropoxy-3-pyridyl)pyridine-3-carboxamide] |
